In patent publication US7312248B2, “Control of parasites in animals by the use of novel trifluoromethanesulfonanilide oxime ether derivatives” (Schering-Plough Animal Health Corporation, priority 2004, dated 2007):
Like-named read-outs stand apart in the source and are kept apart here.

Assays:
Type in all cases: in vivo
[1] = system: cat flea (Ctenocephalides felis); assay: whole plant or invertebrate; details: Ctenocephalides felis
How it was run: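 Single-dose screen at 1.26 μg/cm^2: acetone solution dried for 24 h on a Coatasil-treated 159 mm^2 flask base, then 15 adult cat fleas aged 3-7 days per flask, four or more replicates, acetone control. Percent dead, meaning not moving or unable to right themselves, recorded after 8, 24 and/or 48 h at 25 °C and 75% RH.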

Haemonchus contortus = Haemonchus contortus larvacidal (larval development) assay; details: 144 h, read-out: Haemonchus contortus LD99
Method: a) Haemonchus Contortus Larvacidal Assay:
The effect of compounds on larval development was determined in the assay described by Gill et al. (1995, International Journal of Parasitology 25:463-470). Briefly, in this assay, nematode eggs were applied to the surface of an agar matrix containing the test compound and then allowed to develop through to the L3, infective stage (6 days). The wells for each dilution of every compound (from highest to lowest concentration) were inspected to determine the well number corresponding to the lowest concentration at which development was inhibited in 99% of the nematode larvae present (LD99). Because well numbers correspond to a two-fold serial dilution of each compound, a titre (dilution factor) is generated as 2^n−1, where n is the well number. By dividing the highest concentration tested by the titre an LD99 value can be obtained, representing the concentration required to inhibit development in 99% of the nematode larvae present. The compounds supplied as solid and viscous liquids were dissolved in DMSO. Twelve serial one-half dilutions in DMSO solution were prepared from the stock solution, each of which was then diluted ⅕ with water. Aliquots (10 μl) of each dilution were transferred to the bioassay plates to give a final concentration range of 0.024 to 50 μg/ml.

[2] = system: cat flea (Ctenocephalides felis); assay: Ctenocephalides felis adulticide assay: dose response (LC50)
Source text: c) Ctenocephalides felis Adulticide Assay: C. felis Dose Response
The purpose of this example was to determine the LC50 when cat fleas were contacted with a glass surface treated with sample compounds or formulations prepared as described above. Mortality of fleas was defined as follows: fleas were considered dead if they didn't move or were on their sides and unable to walk or right themselves. LC50: Lethal Concentration 50—concentration of glass surface treatment at which 50% of the cat fleas were killed. The test species was the cat flea (Ctenocephalides felis). The strain used was obtained from external suppliers as pupae and held in the laboratory under testing conditions until the adults had emerged. Fifteen (15) fleas were used in a minimum of four replicates for each dose level (total of 60 fleas per dose level). The insects were selected to be in the adult life stage, aged between 3 and 7 days post emergence.
The compounds to be tested were dissolved in acetone just prior to testing. Samples of compounds were stored in a refrigerator (5±1° C.) unless otherwise specified. During the mortality testing, the temperature was maintained at 25+1° C. Humidity was maintained at 75±5%. The base (area=159 mm^2) of a 100 mL glass Erlenmeyer (conical) flask provided the treatment surface. Flasks were pretreated with Coatasil™ glass treatment to maximise bio-availability of test compounds by preventing them from binding to the glass surface.
Six dose levels (concentrations) of test sample, in the form of a serial dilution, were derived from a pilot study and covered a range that produced very low to very high mortality. The base of the 100 mL Erlenmeyer flask was treated with 0.5 mL of test sample in acetone and gently swirled. This volume was sufficient to cover the base of the flask. Flasks were left to dry for 24 hours before flea exposure. Adult cat fleas were lightly anaesthetised by cooling and then placed into a sorting chamber, which allowed fleas to revive and jump into the Erlenmeyer flasks. Fifteen (15)adult cat fleas were collected in each flask. The top of the flasks were then covered in Parafilm™ and small holes made to allow gas exchange. A 0.5 mL volume of acetone was applied to the base of an Erlenmeyer flask and the testing proceeded in the same manner described above. Cat fleas in the treatment containers were held under testing conditions for 24 hours. Mortality resulting from the treatments was recorded at 8 and 24 hours.

[3] = 8 h, read-out: C. felis Mortality (%) 8 h, 8 h, Laboratory 1 A data
[4] = 24 h, read-out: C. felis Mortality (%) 24 h, 24 h, Laboratory 1 A data
[5] = 8 h, read-out: Ctenocephalides felis Mortality (%) 8 h
[6] = 24 h, read-out: Ctenocephalides felis Mortality (%) 24 h
[7] = lowest concentration inhibiting development in 99% of larvae, eggs to L3, 6 days, range 0.024 to 50 μg/ml

Compound | mortality at 1.26 µg/cm2, 1.26 µg/cm2 [1, 3] [%] | mortality at 1.26 µg/cm2, 1.26 µg/cm2 [1, 4] [%] | IC99 (Haemonchus contortus) [µg/mL] | C. felis LC50 ([2]; Laboratory 1 C data) [μg/cm^2] | further results
CC/C(=N\OCc1ccccc1Cl)c1cc(Cl)ccc1NS(=O)(=O)C(F)(F)F [Compound 10] | 56 | 73 | 2.7 | 0.3 | 
O=S(=O)(Nc1ccc(Cl)cc1/C(=N/OCc1ccc(C(F)(F)F)cc1)c1ccccc1)C(F)(F)F [Compound 24] |  | 43 | 2.5 |  | C. felis LC50 ([2]; Laboratory 2 D data): 0.8^D μg/cm^2
CC/C(=N\OCc1cccc(Cl)c1Cl)c1cc(Cl)ccc1NS(=O)(=O)C(F)(F)F [Compound 72] | 13 | 63 | 0.3 | 0.5 | 
CC/C(=N\OCc1ccc(Cl)cc1Cl)c1cc(Cl)ccc1NS(=O)(=O)C(F)(F)F [Compound 74] | 94 |  | 0.4 | 0.2 | 
CC/C(=N\OCc1ccc(Cl)c(Cl)c1)c1cc(Cl)ccc1NS(=O)(=O)C(F)(F)F [Compound 79] | 73 | 100 | 0.6 | 0.6 | 
CCC/C(=N\OCc1ccc(Cl)cc1Cl)c1cc(Cl)ccc1NS(=O)(=O)C(F)(F)F [Compound 100, N-{4-chloro-2-[1-(2,4-dichlorobenzyloxyimino)butyl]}trifluoromethanesulfonamide] | 58 | 88 | 1.8 | 0.4 | 
CC/C(=N\OCCOc1ccccc1)c1cc(Cl)ccc1NS(=O)(=O)C(F)(F)F [Compound 106] |  | 48 | 11 | 1.0 | 
CC/C(=N\OCc1cc(Br)cc(Br)c1)c1cc(Cl)ccc1NS(=O)(=O)C(F)(F)F [Compound 109] | 3 |  | 2.8 |  | 
CCC/C(=N\OCC1CCCCC1)c1cc(Cl)ccc1NS(=O)(=O)C(F)(F)F [Compound 111] |  |  | 5 |  | mortality at 1.26 µg/cm2, 1.26 µg/cm2 ([1]; 8 h, read-out: C. felis Mortality (%) 8 h, 8 h, Laboratory 2 B data): 9%; mortality at 1.26 µg/cm2, 1.26 µg/cm2 ([1]; 24 h, read-out: C. felis Mortality (%) 24 h, 24 h, Laboratory 2 B data): 70%
CC(C)/C(=N\OCc1ccc(C(F)(F)F)cc1C(F)(F)F)c1cc(Cl)ccc1NS(=O)(=O)C(F)(F)F [Compound 116, N-{2-[1-(2,4-bistrifluoromethylbenzyloxyimino)-2-methylpropyl]-4-chlorophenyl}trifluoromethanesulfonamide] | 10 |  | 0.9 |  | 
C/C(=N\OCc1cc(C(F)(F)F)ccc1C(F)(F)F)c1cc(Cl)ccc1NS(=O)(=O)C(F)(F)F [Compound 120, N-{2-[1-(2,5-bistrifluoromethylbenzyloxyimino)ethyl]-4-chlorophenyl}trifluoromethanesulfonamide] | 2 |  | 0.5 |  | 
C/C(=N\OCc1ccc(C(F)(F)F)cc1C(F)(F)F)c1cc(F)ccc1NS(=O)(=O)C(F)(F)F [Compound 121] | 3 |  | 0.6 |  | 
C/C(=N\OC(C)c1ccc(Cl)cc1)c1cc(Cl)ccc1NS(=O)(=O)C(F)(F)F (stereo not drawn) [Compound 123] | 11 |  | 0.9 | 1.2 | C. felis LC50 ([2]; Laboratory 2 D data): 0.3 μg/cm^2
C/C(=N\Oc1ccccc1)c1cc(Cl)ccc1NS(=O)(=O)C(F)(F)F [Compound 125] | 6 |  | 5.5 |  | 
C/C(=N\Oc1ccc(Cl)cc1)c1cc(Cl)ccc1NS(=O)(=O)C(F)(F)F [Compound 127] |  | 90 | 0.4 | 0.3 | 
CC/C(=N\Oc1cccc(C(F)(F)F)c1)c1cc(Cl)ccc1NS(=O)(=O)C(F)(F)F [Compound 133] |  | 71 | 0.9 |  | 
C/C(=N\Oc1ccc(C#N)cc1)c1cc(Cl)ccc1NS(=O)(=O)C(F)(F)F [Compound 135] |  | 47 | 3 |  | 

Compound | mortality at 1.26 µg/cm2, 1.26 µg/cm2 [1, 3] [%] | mortality at 1.26 µg/cm2, 1.26 µg/cm2 [1, 4] [%] | IC99 (Haemonchus contortus) [µg/mL] | C. felis LC50 ([2]; Laboratory 1 C data) [μg/cm^2] | further results
CC/C(=N\Oc1ccc(C#N)cc1)c1cc(Cl)ccc1NS(=O)(=O)C(F)(F)F [Compound 136] |  | 74 | 2.5 |  | 
C/C(=N\Oc1ccc(Br)cc1)c1cc(Cl)ccc1NS(=O)(=O)C(F)(F)F [Compound 137] |  | 91 | 0.4 |  | 
CC/C(=N\Oc1ccc(Br)cc1)c1cc(Cl)ccc1NS(=O)(=O)C(F)(F)F [Compound 138] |  | 78 | 1.7 |  | 
C/C(=N\Oc1ccc(Cl)c(Cl)c1)c1cc(Cl)ccc1NS(=O)(=O)C(F)(F)F [Compound 140] |  | 71 | 0.7 |  | 
C/C(=N\OC(C)C)c1cc(Cl)ccc1NS(=O)(=O)C(F)(F)F [Compound 158] |  | 100 |  | 0.2 | 
CC/C(=N\OCC(C)C)c1cc(Cl)ccc1NS(=O)(=O)C(F)(F)F [Compound 159] |  | 100 |  | 0.2 | 
C/C(=N\OC1CCCCC1)c1cc(Cl)ccc1NS(=O)(=O)C(F)(F)F [Compound 161] |  | 100 |  | 0.2 | 
C/C(=N\OC1CCCC1)c1cc(Cl)ccc1NS(=O)(=O)C(F)(F)F [Compound 163, N-[4-chloro-2-(1-cyclopentyloxyiminoethyl)phenyl]trifluoromethanesulfonamide] |  | 100 |  | 0.1 | 
CC/C(=N\OC1C=CCCC1)c1cc(Cl)ccc1NS(=O)(=O)C(F)(F)F (stereo not drawn) [Compound 170] |  | 97 |  | 0.2 | 
CC/C(=N\OC(CC)CC)c1cc(Cl)ccc1NS(=O)(=O)C(F)(F)F [Compound 171] |  | 100 |  | 0.4 | 
C/C(=N\OCC(C)C)c1cc(Cl)ccc1NS(=O)(=O)C(F)(F)F [Compound 172] |  | 100 |  | 0.06 | 
C=CCO/N=C(\C)c1cc(Cl)ccc1NS(=O)(=O)C(F)(F)F [Compound 181] |  | 100 |  | 0.1 | 
O=S(=O)(Nc1ccc(Cl)cc1-c1cc(-c2ccc(Cl)cc2)on1)C(F)(F)F [Compound 227] |  |  |  |  | mortality at 1.26 µg/cm2 [1, 5]: 7%; mortality at 1.26 µg/cm2 [1, 6]: 9%; IC99 (Haemonchus contortus; [7]): 0.1 µg/mL
O=S(=O)(Nc1ccc(Cl)cc1-c1cc(-c2ccc(F)cc2)on1)C(F)(F)F [Compound 228] |  |  |  |  | mortality at 1.26 µg/cm2 [1, 5]: 3%; mortality at 1.26 µg/cm2 [1, 6]: 3%; IC99 (Haemonchus contortus; [7]): 0.4 µg/mL
O=S(=O)(Nc1ccc(Cl)cc1-c1cc(-c2ccc(Cl)cc2Cl)on1)C(F)(F)F [Compound 229, N-{4-chloro-2-[5-(2,4-dichlorophenyl)isoxazol-3-yl]phenyl}trifluoromethanesulfonamide] |  |  |  |  | mortality at 1.26 µg/cm2 [1, 5]: 2%; mortality at 1.26 µg/cm2 [1, 6]: 7%; IC99 (Haemonchus contortus; [7]): 0.09 µg/mL
O=S(=O)(Nc1ccc(Cl)cc1-c1cc(-c2ccc(Cl)c(Cl)c2)on1)C(F)(F)F [Compound 230] |  |  |  |  | mortality at 1.26 µg/cm2 [1, 5]: 8%; mortality at 1.26 µg/cm2 [1, 6]: 15%; IC99 (Haemonchus contortus; [7]): 0.4 µg/mL
O=S(=O)(Nc1ccc(Cl)cc1-c1cc(-c2ccc(F)cc2F)on1)C(F)(F)F [Compound 231, N-{4-chloro-2-[5-(2,4-difluorophenyl)isoxazol-3-yl]phenyl}trifluoromethanesulfonamide] |  |  |  |  | mortality at 1.26 µg/cm2 [1, 6]: 7%; IC99 (Haemonchus contortus; [7]): 0.6 µg/mL
